From ChEMBL document CHEMBL3431459, “Roche carnitine palmitoyltransferase modulator screening data (supplementary data associated with the publication CHEMBL2216752)”
Values after ≈ are worked out from the molar mass of the structure shown.

What was measured:
[1] = SUPPLEMENTARY: PAMPA permeability assay; type: physicochemical; conditions: read-out: Permeability
[2] = SUPPLEMENTARY: Lyophilisation Solubility Assay (LYSA); type: physicochemical; conditions: read-out: Kinetic_solubility
[3] = target: T1, Carnitine O-palmitoyltransferase 2, mitochondrial (Rattus norvegicus, UniProt P18886); assay: (§1) SUPPLEMENTARY: Inhibition of Carnitine palmitoyltransferase 2
T1 sequence (P18886 whole entry): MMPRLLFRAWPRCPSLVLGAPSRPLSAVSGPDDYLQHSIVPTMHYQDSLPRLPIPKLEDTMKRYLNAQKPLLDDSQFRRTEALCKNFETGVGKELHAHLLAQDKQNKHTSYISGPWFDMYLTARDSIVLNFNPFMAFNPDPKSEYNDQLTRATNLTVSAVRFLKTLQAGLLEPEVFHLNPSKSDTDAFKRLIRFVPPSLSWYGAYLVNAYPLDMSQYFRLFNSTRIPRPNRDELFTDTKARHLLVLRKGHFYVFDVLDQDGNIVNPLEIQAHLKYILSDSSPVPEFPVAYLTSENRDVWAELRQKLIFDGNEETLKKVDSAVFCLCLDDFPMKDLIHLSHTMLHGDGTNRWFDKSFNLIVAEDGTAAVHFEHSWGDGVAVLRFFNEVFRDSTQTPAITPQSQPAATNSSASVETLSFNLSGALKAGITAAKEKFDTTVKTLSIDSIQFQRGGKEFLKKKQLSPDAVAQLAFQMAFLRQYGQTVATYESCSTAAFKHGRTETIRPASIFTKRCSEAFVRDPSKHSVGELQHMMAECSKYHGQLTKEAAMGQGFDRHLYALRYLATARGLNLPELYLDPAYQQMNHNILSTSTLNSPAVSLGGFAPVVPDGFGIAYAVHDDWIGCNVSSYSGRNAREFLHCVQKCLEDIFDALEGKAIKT

[4] = target: T2, Carnitine O-palmitoyltransferase 2, mitochondrial (Homo sapiens, UniProt P23786); assay: as §1
T2 sequence (P23786 whole entry): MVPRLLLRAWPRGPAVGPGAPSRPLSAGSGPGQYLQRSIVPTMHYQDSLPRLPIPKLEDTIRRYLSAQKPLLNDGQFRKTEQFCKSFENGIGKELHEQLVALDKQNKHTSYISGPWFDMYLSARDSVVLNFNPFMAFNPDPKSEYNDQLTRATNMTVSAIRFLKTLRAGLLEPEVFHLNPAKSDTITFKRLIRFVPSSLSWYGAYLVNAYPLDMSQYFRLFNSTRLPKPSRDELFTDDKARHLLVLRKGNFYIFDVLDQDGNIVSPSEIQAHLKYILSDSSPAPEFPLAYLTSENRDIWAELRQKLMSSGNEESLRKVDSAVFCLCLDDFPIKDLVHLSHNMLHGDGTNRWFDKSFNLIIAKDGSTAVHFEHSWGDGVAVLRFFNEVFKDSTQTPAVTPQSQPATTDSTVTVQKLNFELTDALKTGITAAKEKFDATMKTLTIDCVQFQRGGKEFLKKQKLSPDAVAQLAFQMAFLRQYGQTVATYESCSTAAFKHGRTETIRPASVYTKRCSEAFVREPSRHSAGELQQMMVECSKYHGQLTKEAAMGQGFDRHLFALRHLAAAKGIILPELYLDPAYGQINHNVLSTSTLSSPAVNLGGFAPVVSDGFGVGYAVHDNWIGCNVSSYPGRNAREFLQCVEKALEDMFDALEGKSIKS

[5] = SUPPLEMENTARY: Lipophilicity (log D) Determination by high-throughput shake-flask; type: physicochemical; conditions: octanol/water
[6] = target: T3, Carnitine O-palmitoyltransferase 1, liver isoform (Homo sapiens, UniProt P50416); assay: (§2) SUPPLEMENTARY: Inhibition of Carnitine palmitoyltransferase 1, liver isoform
T3 sequence (P50416 whole entry): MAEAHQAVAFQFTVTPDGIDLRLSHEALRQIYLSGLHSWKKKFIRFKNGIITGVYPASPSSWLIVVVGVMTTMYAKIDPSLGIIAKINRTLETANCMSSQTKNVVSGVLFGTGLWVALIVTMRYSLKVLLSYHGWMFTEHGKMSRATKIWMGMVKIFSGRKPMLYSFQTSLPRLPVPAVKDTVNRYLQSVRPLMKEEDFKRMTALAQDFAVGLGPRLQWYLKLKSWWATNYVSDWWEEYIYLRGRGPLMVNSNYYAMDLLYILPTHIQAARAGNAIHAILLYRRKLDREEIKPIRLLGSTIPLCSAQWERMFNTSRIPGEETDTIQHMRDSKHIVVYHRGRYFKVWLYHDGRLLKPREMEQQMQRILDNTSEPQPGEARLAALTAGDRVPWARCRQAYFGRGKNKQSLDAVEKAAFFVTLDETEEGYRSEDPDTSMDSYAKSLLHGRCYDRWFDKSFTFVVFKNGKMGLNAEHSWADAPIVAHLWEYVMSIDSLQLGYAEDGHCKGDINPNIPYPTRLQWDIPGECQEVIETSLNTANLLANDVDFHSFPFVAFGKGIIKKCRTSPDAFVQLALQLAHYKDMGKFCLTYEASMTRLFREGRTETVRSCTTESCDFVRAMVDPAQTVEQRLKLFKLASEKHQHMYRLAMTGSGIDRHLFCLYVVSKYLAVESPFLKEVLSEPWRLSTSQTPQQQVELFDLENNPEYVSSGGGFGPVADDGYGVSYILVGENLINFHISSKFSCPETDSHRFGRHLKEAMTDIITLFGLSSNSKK

[7] = target: T4, Carnitine O-palmitoyltransferase 1, liver isoform (Rattus norvegicus, UniProt P32198); assay: as §2
T4 sequence (P32198 whole entry): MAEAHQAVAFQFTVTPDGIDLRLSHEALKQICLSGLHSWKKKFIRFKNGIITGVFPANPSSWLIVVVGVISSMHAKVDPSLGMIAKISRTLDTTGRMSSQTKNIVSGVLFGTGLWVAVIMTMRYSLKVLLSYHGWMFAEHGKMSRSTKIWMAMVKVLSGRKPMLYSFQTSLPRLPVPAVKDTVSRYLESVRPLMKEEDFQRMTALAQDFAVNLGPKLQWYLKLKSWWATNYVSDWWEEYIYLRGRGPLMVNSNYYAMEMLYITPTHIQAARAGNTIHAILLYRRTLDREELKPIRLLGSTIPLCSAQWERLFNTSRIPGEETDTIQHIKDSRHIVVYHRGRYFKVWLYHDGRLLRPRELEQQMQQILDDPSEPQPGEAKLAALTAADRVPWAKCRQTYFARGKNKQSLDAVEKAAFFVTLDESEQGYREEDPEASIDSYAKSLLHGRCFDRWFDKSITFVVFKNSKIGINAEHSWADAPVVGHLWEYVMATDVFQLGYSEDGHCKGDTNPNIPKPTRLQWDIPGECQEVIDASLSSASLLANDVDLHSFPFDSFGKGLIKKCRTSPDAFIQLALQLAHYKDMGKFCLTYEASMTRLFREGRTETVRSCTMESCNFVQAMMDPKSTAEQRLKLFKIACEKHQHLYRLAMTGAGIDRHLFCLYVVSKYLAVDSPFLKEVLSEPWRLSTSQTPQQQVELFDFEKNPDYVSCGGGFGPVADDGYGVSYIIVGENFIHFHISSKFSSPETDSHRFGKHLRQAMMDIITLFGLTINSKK

[8] = target: T5, Carnitine O-palmitoyltransferase 1, muscle isoform (Homo sapiens, UniProt Q92523); assay: SUPPLEMENTARY: Inhibition of Carnitine palmitoyltransferase 1, muscle isoform; design: species or system Muscle tissue
T5 sequence (Q92523 whole entry): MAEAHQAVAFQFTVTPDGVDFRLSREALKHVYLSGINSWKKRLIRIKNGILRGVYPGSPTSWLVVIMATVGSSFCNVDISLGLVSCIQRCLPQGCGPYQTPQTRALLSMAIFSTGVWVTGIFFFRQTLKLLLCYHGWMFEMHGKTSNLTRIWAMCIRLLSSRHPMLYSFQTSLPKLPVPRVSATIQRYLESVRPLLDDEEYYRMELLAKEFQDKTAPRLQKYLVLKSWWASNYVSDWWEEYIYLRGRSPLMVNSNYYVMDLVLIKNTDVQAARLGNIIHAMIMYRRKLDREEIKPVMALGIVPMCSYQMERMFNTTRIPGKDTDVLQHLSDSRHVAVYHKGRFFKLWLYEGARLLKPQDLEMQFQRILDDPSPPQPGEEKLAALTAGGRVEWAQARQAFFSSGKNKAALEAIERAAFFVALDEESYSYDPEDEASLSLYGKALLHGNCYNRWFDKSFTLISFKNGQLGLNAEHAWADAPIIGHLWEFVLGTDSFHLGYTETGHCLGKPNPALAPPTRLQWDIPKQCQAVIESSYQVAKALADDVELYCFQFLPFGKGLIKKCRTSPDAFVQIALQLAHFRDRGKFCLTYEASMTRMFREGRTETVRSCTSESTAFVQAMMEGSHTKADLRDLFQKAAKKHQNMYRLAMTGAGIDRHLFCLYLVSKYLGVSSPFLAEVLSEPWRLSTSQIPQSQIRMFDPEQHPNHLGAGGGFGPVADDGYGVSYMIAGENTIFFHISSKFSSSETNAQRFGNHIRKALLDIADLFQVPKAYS

SMILES | Papp [1] | solubility kinetic [2] | IC50 [3] | IC50 [4] | logD [5] | IC50 [6] | IC50 [7] | IC50 [8]
CC(=O)Nc1ccc(-c2noc([C@H]3CCCCN3C(=O)C#Cc3ccccc3)n2)cc1C(F)(F)F | 1.5 ×10⁻⁶ cm/s | 1 µg/mL (≈ 2.07 µM) | > 100000 nM | > 100000 nM | > 3 | 260 nM | 7980 nM | > 100000 nM
CN(C)C(=O)CCC(=O)Nc1cc(F)cc(-c2noc([C@H]3CCCCN3C(=O)COc3ccccc3)n2)c1 | 0.83 ×10⁻⁶ cm/s | < 1 µg/mL | > 100000 nM | 14100 nM | 3.16 | 111 nM | 253 nM | > 100000 nM
COc1ccc(Cl)cc1Cn1cc(C(=O)O)c2ccc(C(=O)Nc3ccccc3)cc21 | 0.53 ×10⁻⁶ cm/s | < 1 µg/mL | > 100000 nM | > 100000 nM | 3.13 | 99.6 nM | 104 nM | > 100000 nM
CCOC(=O)C1CN(S(=O)(=O)c2cc(Cl)ccc2OC)c2cc(C(=O)Nc3cccc(F)c3)ccc2O1 (configuration not stated) | 1.31 ×10⁻⁶ cm/s | < 1 µg/mL | > 100000 nM | > 100000 nM | 3.58 | 221 nM | 339 nM | > 100000 nM
COc1ccc(Cl)cc1S(=O)(=O)c1c2cc(C(=O)Nc3ccc(C(=O)O)cc3)ccc2nn1C | 2.25 ×10⁻⁶ cm/s | 36 µg/mL (≈ 72 µM) | > 100000 nM | > 100000 nM | 2.41 | 60.1 nM | 56.3 nM | > 100000 nM
COc1ccc(Cl)cc1S(=O)(=O)N1CC(C(=O)O)Oc2ccc(C(=O)Nc3ccccc3F)cc21 (configuration not stated) | 0.38 ×10⁻⁶ cm/s | > 617 µg/mL | > 100000 nM | > 100000 nM | -0.49 | 218 nM | 169 nM | > 100000 nM
COc1ccc(Cl)cc1S(=O)(=O)N1CC(C(=O)O)Oc2ccc(C(=O)Nc3ccc(F)cc3)cc21 (configuration not stated) | 0.06 ×10⁻⁶ cm/s | 347 µg/mL (≈ 666 µM) | > 100000 nM | > 100000 nM | -0.22 | 80.9 nM | 131 nM | 99900 nM
COc1ccc(Cl)cc1S(=O)(=O)c1nn(C)c2ccc(C(=O)Nc3ccc(CC(=O)O)cc3)cc12 | 0.39 ×10⁻⁶ cm/s | 70 µg/mL (≈ 136 µM) | > 100000 nM | > 100000 nM | 0.12 | 166 nM | 125 nM | 1730 nM

These reach a lower IC50 [3]. Values come first.

Papp [1] | solubility kinetic [2] | IC50 [3] | IC50 [4] | logD [5] | IC50 [6] | IC50 [7] | IC50 [8] | SMILES
1.92 ×10⁻⁶ cm/s | 54 µg/mL (≈ 117 µM) | 56900 nM | 23500 nM | 2.16 | 96.8 nM | 150 nM | 61800 nM | O=C1CN(c2cccc(-c3n[nH]c([C@H]4CCCCN4C(=O)COc4ccccc4)n3)c2)C(=O)N1
0.86 ×10⁻⁶ cm/s | > 626 µg/mL | 20800 nM | 5440 nM | 0.25 | 54.2 nM | 39.5 nM | 15500 nM | O=C(O)c1ccc(NC(=O)c2ccc3c(c2)N(S(=O)(=O)c2cccc(Cl)c2)CCS3(=O)=O)cc1
0.06 ×10⁻⁶ cm/s | 45 µg/mL (≈ 76.9 µM) | 15700 nM | 5560 nM | -0.37 | 204 nM | 103 nM | 8030 nM | COc1ccc(Cl)cc1S(=O)(=O)N1CCS(=O)(=O)c2ccc(C(=O)Nc3ccc(C(=O)O)c(Cl)c3)cc21
1.95 ×10⁻⁶ cm/s | 481 µg/mL (≈ 935 µM) | 10500 nM | 2800 nM | 0.55 | 31 nM | 18.1 nM | 5300 nM | Cc1cc(C)cc(S(=O)(=O)N2CCS(=O)(=O)c3ccc(C(=O)Nc4ccc(C(=O)O)cc4)cc32)c1
2.81 ×10⁻⁶ cm/s | 20 µg/mL (≈ 40.9 µM) | 5640 nM | 1950 nM | 1.48 | 82.2 nM | 43 nM | 7330 nM | O=C(O)c1ccc(NC(=O)c2ccc3c(c2)N(S(=O)(=O)c2cccc(Cl)c2)CCS3)cc1
1.79 ×10⁻⁶ cm/s | 125 µg/mL (≈ 259 µM) | 2620 nM | 1580 nM | 1.75 | 51 nM | 26 nM | 2680 nM | Cc1cc(C)cc(S(=O)(=O)N2CCSc3ccc(C(=O)Nc4ccc(C(=O)O)cc4)cc32)c1
